Source: patent US20240024273A1, “TOPICAL ADMINISTRATION OF 2-(DIETHYLAMINO)ETHYL 2-(4-ISOBUTYLPHENYL)PROPRIONATE FOR TREATMENT OF DISEASES” (TECHFIELDS PHARMA CO., LTD., priority 2020, published 2024)

Tests used:
Format in all cases: in vivo, human
[1] = system: osteoarthritis of the knee; assay: Second Phase 2 study: Subject Global Impression of Change (SGIC); settings: Week 12; for SGIC, Good and Very good / SGIC, Poor and Very Poor / SGIC, fair: all subjects
Source text: (§1) 4.9.2. Secondary Efficacy Endpoints: • 1. Change from Baseline in the WOMAC (VAS) pain subscale score for the target knee at 2, 8, and 12 weeks of treatment; • 2. Change from Baseline in the WOMAC (VAS) stiffness subscale scores for the target knee and WOMAC (VAS) functional ability subscale scores at 2, 4, 8, and 12 weeks of treatment; • 3. Change from Baseline in the overall WOMAC (VAS) score at 2, 4, 8, and 12 weeks of treatment; • 4. Subject's global assessment of disease status of the target knee at 2, 4, 8, and 12 weeks of treatment; • 5. Subject's global assessment of response to therapy of the target knee at 2, 4, 8, and 12 weeks of treatment; • 6. Amount of rescue medication (acetaminophen) consumed per day for target knee pain.

[2] = system: osteoarthritis of the knee; assay: Second Phase 2 study: Subject's pain Assessment Scores (SPA); settings: for Subject's pain Assessment Scores, % of improvement from Oral Ibuprofen / Subject's pain Assessment Scores, % of improvement from Placebo / Subject's pain Assessment Scores, % of improvement from baseline / Subject's pain Assessment Scores, Changes from Baseline (LS Mean) / Subject's pain Assessment Scores, Week 12 (LS Mean) / Subject's pain Assessment Scores, Different from oral ibuprofen (LS Mean) / Subject's pain Assessment Scores, Different from placebo (LS Mean): all subjects
Description: Subjects will record the following information in a Daily Diary starting at Screening: the amount of knee pain in the target knee while walking during the preceding 24 hours (using a 100 mm visual analog scale [VAS]), the times and number of sprays for each administration of study medication, the times when the subject washes his/her knees and/or takes a shower, the number of tablets of rescue medication taken that day and the times taken, the reason for taking the rescue medication (e.g., knee pain, headache, low back pain), any other concomitant medications taken that day, and any AEs occurring that day.

[3] = system: osteoarthritis of the knee; assay: Second Phase 2 study: WOMAC stiffness subscale score; settings: 17.5 mg/knee BID; Week 12; first 130 subjects
Source text: For subjects with bilateral knee pain, both knees will be treated, but the most symptomatic knee (ie, the most painful knee as measured by the Western Ontario and McMaster University Osteoarthritis Index [WOMAC® 3.1] pain subscale score at Screening) will be designated as the target knee for efficacy analyses. For subjects with unilateral knee pain, only the symptomatic (target) knee will be treated.
The VAS version of the WOMAC will be used for the Primary and Secondary Efficacy Endpoints. Efficacy endpoints will be assessed at Screening and Baseline (Day 1) and at the Week 2, Week 4, Week 8, and Week 12/EOS visits.
as §1
The Secondary Efficacy Endpoints, change from Baseline in the WOMAC subscale scores for pain, stiffness, and functional ability, and overall WOMAC score at 2, 4, 8, and 12 weeks of treatment, will be analyzed using the same methods as for the Primary Efficacy Endpoint.

[4] = 4.375 mg/knee BID (n = 23), first 130 subjects
[5] = 8.75 mg/knee BID (n = 24), first 130 subjects
[6] = 17.5 mg/knee BID (n = 19), first 130 subjects
[7] = 17.5 mg/knee BID, Week 12, first 130 subjects
[8] = Week 12, 4.375 mg/knee BID (n = 23), first 130 subjects
[9] = Week 12, 8.75 mg/knee BID (n = 24), first 130 subjects
[10] = Week 12, 17.5 mg/knee BID (n = 19), first 130 subjects
[11] = 4.375 mg/knee BID, n = 49, Week 12
[12] = 8.75 mg/knee BID, n = 54, Week 12
[13] = 17.5 mg/knee BID, n = 52, Week 12

CCN(CC)CCOC(=O)C(C)c1ccc(CC(C)C)cc1 (stereo not drawn) [2-(diethylamino)ethyl 2-(4-isobutylphenyl)propionate]
Subject's satisfaction rate (SGIC good and very good) ([1]; 17.5 mg/knee BID, first 130 subjects): 73.7% | SGIC: Good and Very good [1, 4]: 39.1% | SGIC: Poor and Very Poor [1, 4]: 4.3% | SGIC: fair [1, 4]: 56.5% | SGIC: Good and Very good [1, 5]: 37.5% | SGIC: Poor and Very Poor [1, 5]: 16.7% | SGIC: fair [1, 5]: 45.8% | SGIC: Good and Very good [1, 6]: 73.7% | SGIC: Poor and Very Poor [1, 6]: 5.3% | SGIC: fair [1, 6]: 21.1% | SGIC, Good and Very good ([1]; 4.375 mg/knee BID, n = 49): 32.7% | SGIC, Poor and Very Poor ([1]; 4.375 mg/knee BID, n = 49): 10.2% | SGIC, fair ([1]; 4.375 mg/knee BID, n = 49): 57.1% | SGIC, Good and Very good ([1]; 8.75 mg/knee BID, n = 54): 46.3% | SGIC, Poor and Very Poor ([1]; 8.75 mg/knee BID, n = 54): 16.7% | SGIC, fair ([1]; 8.75 mg/knee BID, n = 54): 37.0% | SGIC, Good and Very good ([1]; 17.5 mg/knee BID, n = 52): 61.5% | SGIC, Poor and Very Poor ([1]; 17.5 mg/knee BID, n = 52): 5.8% | SGIC, fair ([1]; 17.5 mg/knee BID, n = 52): 32.7% | SPA, difference from oral ibuprofen [2, 7]: −14.1 mm | SPA, difference from placebo [2, 7]: −21.0 mm | Subject’s pain Assessment Scores, Baseline (LS Mean) [2, 4]: 59.7 mm | Subject’s pain Assessment Scores, Baseline (LS Mean) [2, 5]: 63.5 mm | Subject’s pain Assessment Scores, Baseline (LS Mean) [2, 6]: 68.6 mm | Subject’s pain Assessment Scores, % of improvement from Oral Ibuprofen [2, 8]: −2.3% | Subject’s pain Assessment Scores, % of improvement from baseline [2, 8]: −38.5% | Subject’s pain Assessment Scores, % of improvement from placebo [2, 8]: −9.3% | Subject’s pain Assessment Scores, Changes from Baseline (LS Mean) [2, 8]: −23.0 mm | Subject’s pain Assessment Scores, Different from oral ibuprofen (LS Mean) [2, 8]: 2.8 mm | Subject’s pain Assessment Scores, Different from placebo (LS Mean) [2, 8]: −4.0 mm | Subject’s pain Assessment Scores, Week 12 (LS Mean) [2, 8]: 36.7 mm | Subject’s pain Assessment Scores, % of improvement from Oral Ibuprofen [2, 9]: −10.4% | Subject’s pain Assessment Scores, % of improvement from baseline [2, 9]: −47.7% | Subject’s pain Assessment Scores, % of improvement from placebo [2, 9]: −18.5% | Subject’s pain Assessment Scores, Changes from Baseline (LS Mean) [2, 9]: −30.3 mm | Subject’s pain Assessment Scores, Different from oral ibuprofen (LS Mean) [2, 9]: −3.8 mm | Subject’s pain Assessment Scores, Different from placebo (LS Mean) [2, 9]: −11.4 mm | Subject’s pain Assessment Scores, Week 12 (LS Mean) [2, 9]: 33.2 mm | Subject’s pain Assessment Scores, % of improvement from Oral Ibuprofen [2, 10]: −22.0% | Subject’s pain Assessment Scores, % of improvement from baseline [2, 10]: −58.2% | Subject’s pain Assessment Scores, % of improvement from placebo [2, 10]: −29.0% | Subject’s pain Assessment Scores, Changes from Baseline (LS Mean) [2, 10]: −39.9 mm | Subject’s pain Assessment Scores, Different from oral ibuprofen (LS Mean) [2, 10]: −14.1 mm | Subject’s pain Assessment Scores, Different from placebo (LS Mean) [2, 10]: −21.0 mm | Subject’s pain Assessment Scores, Week 12 (LS Mean) [2, 10]: 28.7 mm | Subject's pain Assessment Scores, % of improvement from Oral Ibuprofen [2, 11]: 4.9% | Subject's pain Assessment Scores, % of improvement from Placebo [2, 11]: −3.5% | Subject's pain Assessment Scores, % of improvement from baseline [2, 11]: −40.5% | Subject's pain Assessment Scores, Changes from Baseline (LS Mean) [2, 11]: −25.6 mm | Subject's pain Assessment Scores, Week 12 (LS Mean) [2, 11]: 37.5 mm | Subject's pain Assessment Scores, % of improvement from Oral Ibuprofen [2, 12]: −3.0% | Subject's pain Assessment Scores, % of improvement from Placebo [2, 12]: −11.4% | Subject's pain Assessment Scores, % of improvement from baseline [2, 12]: −48.4% | Subject's pain Assessment Scores, Changes from Baseline (LS Mean) [2, 12]: −31.4 mm | Subject's pain Assessment Scores, Different from oral ibuprofen (LS Mean) [2, 12]: −0.8 mm | Subject's pain Assessment Scores, Different from placebo (LS Mean) [2, 12]: −7.2 mm | Subject's pain Assessment Scores, Week 12 (LS Mean) [2, 12]: 33.5 mm | Subject's pain Assessment Scores, % of improvement from Oral Ibuprofen [2, 13]: −8.2% | Subject's pain Assessment Scores, % of improvement from Placebo [2, 13]: −16.6% | Subject's pain Assessment Scores, % of improvement from baseline [2, 13]: −53.6% | Subject's pain Assessment Scores, Changes from Baseline (LS Mean) [2, 13]: −34.6 mm | Subject's pain Assessment Scores, Different from oral ibuprofen (LS Mean) [2, 13]: −4.1 mm | Subject's pain Assessment Scores, Different from placebo (LS Mean) [2, 13]: −10.5 mm | Subject's pain Assessment Scores, Week 12 (LS Mean) [2, 13]: 30.0 mm | WOMAC stiffness, difference from oral ibuprofen [3]: −12.4 mm | WOMAC stiffness, difference from placebo [3]: −19.1 mm
